# Source: patent US10822317B2, “Methods and compositions for wound healing” (QBiotics Limited, priority 2013, dated 2020)
# System: human PBMCs
# Experiment: Gene expression (Illumina BeadChip) in human PBMCs
# Assay type: cell-based
# Conditions: 30 ng/mL
# Experimental: Human peripheral blood mononuclear cells (PBMCs) were isolated by Ficoll-Paque sedimentation of heparinised blood from a human donor, and cultured in RPMI-1640 10% FCS. Following treatment with Compound 1 at 30 ng/mL, the monolayer was washed once with phosphate buffered saline (PBS) and the cells harvested with sterile scrapers and stored as pellets at −80° C.
# RNA was extracted from 30 mg of frozen tumour or 1×10^7 cells using the QiagenRNeasyPlus Mini Kit, according to manufacturer's instructions, then quantitated with a NanoDrop instrument and integrity confirmed on denaturing agarose gels bearing a 1 kb DNA marker and stained with ethidium bromide.
# Approximately 500 ng of total unlabelled RNA was adjusted to a final volume of 11 μL with nuclease-free water. The RNA was incubated with 9 μL of the reverse transcriptase master mix (1 μL of T7 Oligo (dT) Primer, 2 μL of 10× first strand buffer, 4 μL of dNTP mix, 1 μL of RNase inhibitor and 1 μL of ArrayScript) at 42° C. for 2 hr. This was followed by the second strand cDNA synthesis step which involved a further incubation at 16° C. for 2 hr with 80 µL of the second strand master mix (63 μL nuclease-free water, 10 μL 10× second strand buffer, 4 μL dNTP mix, […] and 1 μL RNase H). The cDNA was purified by filtering through a cDNA Filter Cartridge with 250 μL of cDNA binding buffer and washing with 500 μL of the wash buffer provided in the kit. Purified cDNA was eluted with 20 μL of 55° C. nuclease-free water. Each cDNA sample was incubated with 7.5 μL of the IVT master mix (2.5 μL of T7 10× reaction buffer, 2.5 μL of T7 enzyme mix and 2.5 μL biotin-NTP mix) at 37° C. for 16 hr. The reaction was stopped with the addition of 75 μL of nuclease-free water to each cRNA sample. The biotinylated, amplified RNA was purified by filtering the cRNA samples through cRNA Filter Cartridges with 350 μL of cRNA binding buffer and 250 μL of 100% ethanol mixed together prior to loading onto the filters. The cRNA filter cartridges with attached RNA were then washed with 650 μL of wash buffer before eluting purified cRNA with 200 μL of 55° C. nuclease-free water.
# The cRNA samples were heated at 65° C. for 5 min and collected by pulse centrifugation. After heating at 65 degrees for 5 min, approximately 750 ng of the cRNA sample was aliquoted into separate tubes to which were added ˜5 μL of RNase-free water and 10 μL of Hyb Mix. Approximately 15 μL of the prepared cRNA mix was loaded onto the Illumina Expression BeadChips. Subsequent steps of hybridisation and washing were carried out according to the Whole-Genome Gene Expression Direct Hybridization Assay Guide supplied by Illumina.
# The Human HT-12 v4 Expression BeadChips cover more than 47,000 transcripts and known splice variants across the human transcriptome. The MouseRef-8 v2.0 Expression BeadChips cover approximately 25,600 well-annotated RefSeq (Reference Sequence) transcripts, comprising over 19,000 unique genes.
# BeadChips were read by the iScan System, and transferred via GenomeStudio into GeneSpring GX v12.5 (Agilent Technologies, Santa Clara, Calif., USA). The expression values were normalized using quantile normalization with default settings. The entities were filtered based on the detection score calculated by GenomeStudio where p≤0.05 was considered significant.
# Human peripheral blood mononuclear cells (PBMCs) are rich in lymphocytes and macrophage precursors (monocytes) involved in the production of cytokines and tissue remodelling enzymes relevant to the wound healing process. […] It should therefore be noted that the genes shown in Table 14 illustrate the range of relevant molecules regulated by Compound 1 in a mixed lymphoid population in vitro, without specifying the order of tissue-specific expression in vivo.
structure (smiles),measurement,setting,value
"CC=C(C)C(=O)OC1C(C)C2(O)C(C3OC3(CO)C(O)C3(O)C(=O)C(C)=CC32)C2C(C)(C)C12OC(=O)C(C)CC (centres unmarked) [Compound 1, 12-tigloyl-13-(2-methylbutanoyl)-6,7-epoxy-4,5,9,12,13,20-hexahydroxy-1-tigliaen-3-one]",CCL3L1: Direction of regulation,4 h,Up
same,CCL7: Direction of regulation,4 h,Up
same,CXCL2: Direction of regulation,4 h,Up
same,GM-CSF: Direction of regulation,4 h,Up
same,HBEGF: Direction of regulation,4 h,Up
same,KLF10: Direction of regulation,4 h,Up
same,MMP1: Direction of regulation,4 h,Up
same,MMP7: Direction of regulation,4 h,Up
same,MMP10: Direction of regulation,4 h,Up
same,MMP19: Direction of regulation,4 h,Up
same,TGM3: Direction of regulation,4 h,Up
same,THBS1: Direction of regulation,4 h,Down
same,THBS1: Fold change in expression,"4 h, Down",−47.8 fold
same,CCL3L1: Fold change in expression,"4 h, Up",5.3 fold
same,CCL7: Fold change in expression,"4 h, Up",9.4 fold
same,CXCL2: Fold change in expression,"4 h, Up",3.5 fold
same,GM-CSF: Fold change in expression,"4 h, Up",4.3 fold
same,HBEGF: Fold change in expression,"4 h, Up",2.7 fold
same,KLF10: Fold change in expression,"4 h, Up",5.9 fold
same,MMP1: Fold change in expression,"4 h, Up",3.1 fold
same,MMP7: Fold change in expression,"4 h, Up",3.5 fold
same,MMP10: Fold change in expression,"4 h, Up",3.2 fold
same,MMP19: Fold change in expression,"4 h, Up",11.6 fold
same,TGM3: Fold change in expression,"4 h, Up",2.3 fold
same,CCL1: Direction of regulation,24 h,Up
same,CCL3: Direction of regulation,24 h,Up
same,CCL3L1: Direction of regulation,24 h,Up
same,CCL7: Direction of regulation,24 h,Up
same,CSF1: Direction of regulation,24 h,Up
same,CXCL1: Direction of regulation,24 h,Up
same,CXCL2: Direction of regulation,24 h,Up
same,CXCL5: Direction of regulation,24 h,Up
same,CXCL7: Direction of regulation,24 h,Up
same,CXCL13: Direction of regulation,24 h,Up
same,GM-CSF: Direction of regulation,24 h,Up
same,HBEGF: Direction of regulation,24 h,Up
same,IL1α: Direction of regulation,24 h,Up
same,IL1β: Direction of regulation,24 h,Up
same,IL6: Direction of regulation,24 h,Up
same,IL10: Direction of regulation,24 h,Up
same,IL24: Direction of regulation,24 h,Up
same,KLF10: Direction of regulation,24 h,Up
same,MMP1: Direction of regulation,24 h,Up
same,MMP7: Direction of regulation,24 h,Up
same,MMP9: Direction of regulation,24 h,Down
same,MMP10: Direction of regulation,24 h,Up
same,MMP19: Direction of regulation,24 h,Up
same,TGM2: Direction of regulation,24 h,Up
same,TGM3: Direction of regulation,24 h,Up
same,TGM5: Direction of regulation,24 h,Down
same,THBS1: Direction of regulation,24 h,Down
same,TIMP2: Direction of regulation,24 h,Down
same,MMP9: Fold change in expression,"24 h, Down",−22.9 fold
same,TGM5: Fold change in expression,"24 h, Down",−3.3 fold
same,THBS1: Fold change in expression,"24 h, Down",−101.5 fold
same,TIMP2: Fold change in expression,"24 h, Down",−10.9 fold
same,CCL1: Fold change in expression,"24 h, Up",39.8 fold
same,CCL3: Fold change in expression,"24 h, Up",56.9 fold
same,CCL3L1: Fold change in expression,"24 h, Up",72.3 fold
same,CCL7: Fold change in expression,"24 h, Up",54.5 fold
same,CSF1: Fold change in expression,"24 h, Up",5.1 fold
same,CXCL1: Fold change in expression,"24 h, Up",15.5 fold
same,CXCL2: Fold change in expression,"24 h, Up",73.5 fold
same,CXCL5: Fold change in expression,"24 h, Up",8.1 fold
same,CXCL7: Fold change in expression,"24 h, Up",17.5 fold
same,CXCL13: Fold change in expression,"24 h, Up",2.2 fold
same,GM-CSF: Fold change in expression,"24 h, Up",34.6 fold
same,HBEGF: Fold change in expression,"24 h, Up",5.1 fold
same,IL1α: Fold change in expression,"24 h, Up",14.6 fold
same,IL1β: Fold change in expression,"24 h, Up",15.4 fold
same,IL6: Fold change in expression,"24 h, Up",33.1 fold
same,IL10: Fold change in expression,"24 h, Up",2.1 fold
same,IL24: Fold change in expression,"24 h, Up",4.6 fold
same,KLF10: Fold change in expression,"24 h, Up",9.3 fold
same,MMP1: Fold change in expression,"24 h, Up",4.2 fold
same,MMP7: Fold change in expression,"24 h, Up",7.4 fold
same,MMP10: Fold change in expression,"24 h, Up",52 fold
same,MMP19: Fold change in expression,"24 h, Up",2.6 fold
same,TGM2: Fold change in expression,"24 h, Up",12.2 fold
same,TGM3: Fold change in expression,"24 h, Up",28.4 fold
same,CCL1: Direction of regulation,96 h,Up
same,CCL3L1: Direction of regulation,96 h,Up
same,CCL7: Direction of regulation,96 h,Up
same,CXCL5: Direction of regulation,96 h,Up
same,CXCL7: Direction of regulation,96 h,Up
same,CXCL13: Direction of regulation,96 h,Up
same,GM-CSF: Direction of regulation,96 h,Up
same,MMP7: Direction of regulation,96 h,Up
same,TGM2: Direction of regulation,96 h,Up
same,CCL1: Fold change in expression,"96 h, Up",42.6 fold
same,CCL3L1: Fold change in expression,"96 h, Up",4.2 fold
same,CCL7: Fold change in expression,"96 h, Up",4.8 fold
same,CXCL5: Fold change in expression,"96 h, Up",15.1 fold
same,CXCL7: Fold change in expression,"96 h, Up",37.4 fold
same,CXCL13: Fold change in expression,"96 h, Up",23.5 fold
same,GM-CSF: Fold change in expression,"96 h, Up",6 fold
same,MMP7: Fold change in expression,"96 h, Up",117.3 fold
same,TGM2: Fold change in expression,"96 h, Up",4.4 fold
